Measurements as given in patent US20080200404A1, “Novel Antimalarial 9A-Carbamoyl-Aminoalkyl and 9A-Thiocarbamoyl-Aminoalkyl Azalides” (priority 2005, published 2008).
In brackets after ≈: the same amount, converted by molar mass. Read-outs that look alike come from different tables or passages of the source.

Columns and labels:
Format in all cases: cell-based
[1] = test system: Plasmodium falciparum TM91C235; assay: In vitro antimalarial [3H]-hypoxanthine incorporation assay, TM91C235; conditions: P. falciparum TM91C235 (multiple drug resistant isolate), 72 hours exposure; for IC50: Plasmodium falciparum
Description: (§1) The in vitro screens for intrinsic antimalarial activity were based on modifications of the procedures described by Desjardins R E, Canfield C J, Haynes J D, Chulay J D. (Quantitative assessment of antimalarial activity in vitro by a semiautomated microdilution technique. Antimicrob Agents Chemother. 1979 December; 16(6):710-8.), Chulay J D, Haynes J D, Diggs C L. (Plasmodium falciparum: Assessment of in vitro growth by [3H]hypoxanthine incorporation. Exp. Parasitol. 1983 55:138-146.), and Milhous W K, Weatherly N F, Bowdre J H, Desjardins R E. (In vitro activities of and mechanisms of resistance to antifol antimalarial drugs. Antimicrob Agents Chemother. 1985 April; 27(4):525-30.). The system was limited to the assessment of the intrinsic activity against the erythrocytic asexual life cycle (blood schizontocides). Two Plasmodium falciparum clones from CDC/Indochina III (W-2) and CDC/Sierra Leone I (D-6) (Oduola A M, Weatherly N F, Bowdre J H, Desjardins R E. Plasmodium falciparum: cloning by single-erythrocyte micromanipulation and heterogeneity in vitro. Exp Parasitol. 1988 66(1):86-95.) were used for all assays. TM91C235, a multiple drug resistant isolate from Thailand, was used for the prescreening assay. W-2 is resistant to chloroquine, quinine, and pyrimethamine and susceptible to mefloquine. D-6 tends to be more resistant to mefloquine and susceptible to chloroquine, quinine, and pyrimethamine. All documents cited in this paragraph are incorporated by reference in their entirety.
(§2) All parasites were maintained in continuous long term cultures in RPMI-1640 medium supplemented with 6% washed human A positive (A+)(erythrocytes, 25 mM Hepes, […], and 10% heat inactivated A+human plasma or ALBUMAX® (lipid-rich bovine serum albumin; Invitrogen, Carlsbad, Calif.). All cultures and assays were conducted at 37° C. under an atmosphere of 5% CO2 and 5% O2, with a balance of N2.
The prescreening assay uses TM91C235 diluted at a 0.4% parasitemia in a 1% hematocrit in folic acid free and p-aminobenzoic acid free media RPMI-1640 and ALBUMAX®. One mg of the compound is typically dissolved in 100 μl of dimethyl sulfoxide (DMSO). The compound is further diluted in culture medium (FF) with ALBUMAX® for the first initial starting concentration. The rest of the stock drug solution was kept at −70° C. The isolate was preexposed, in duplicate, at three concentrations (25,000 ng/ml, 2,500 ng/ml, and 25 ng/ml) of the test compound for 48 hr in a 96-well microtiter plate (MTP) using the BIOMEK® 2000 automated laboratory workstation. Each MTP contains chloroquine as control to assess the relative activity of the compound and to monitor the response of TM91C235.
(§3) After the preincubation, [^3H]-hypoxanthine was added to each well of the MTP. (The assay relies on the incorporation of radiolabeled hypoxanthine by the parasites, which indicates reproduction, and inhibition of isotope incorporation was attributed to activity of known or candidate antimalarial drugs). After 72 hr of total incubation time, the MTP were frozen to lyse the erythrocytes and parasites. The parasite DNA was recovered by harvesting the lysate onto glass-fiber filter plates using a Packard FilterMate™ Cell Harvester. The radioactivity was counted on a Packard TopCount™ microplate scintillation counter. The results were recorded as counts per minutes (CPM) per well at each drug concentration divided by the arithmetic mean of the CPM from the three untreated infection parasite control wells.
The serial dilution assay was conducted using the same assay conditions and stock solution of the compound used for the preliminary screen, described above. Both the D-6 and the W-2 clones were used. The compounds were diluted two-fold over 11 different concentration ranges with a starting concentration that was based on the preliminary screen. […]

[2] = test system: Plasmodium falciparum clone CDC/Sierra Leone I (D-6); assay: In vitro antimalarial [3H]-hypoxanthine incorporation serial dilution assay, D6; conditions: Plasmodium falciparum, D6, 72 h, P. falciparum D6, 72 hours exposure
Description: as §1, §2, §3
(§4) The serial dilution assay was conducted using the same assay conditions and stock solution of the compound used for the preliminary screen, described above. Both the D-6 and the W-2 clones were used. The compounds were diluted two-fold over 11 different concentration ranges with a starting concentration that was based on the preliminary screen. For each drug, the concentration response profile was determined and 50% inhibitory concentrations (IC50) were determined by using a non-linear, logistic dose response analysis program. […] For each assay, the IC50 for each clone was determined against the known antimalarials chloroquine and mefloquine. These control values established the compound's relative parasite susceptibility profile compared to known antimalarials. […]
(§5) The in vitro potency of the compounds has been compared with that of azithromycin to better gauge compounds suitable for further testing. As described above, parasites were exposed for 72 hours. Data from the in vitro potency tests of azithromycin against the three parasite strains have been averaged, and these numbers have been used for identification of “active” macrolide compounds.

[3] = test system: Plasmodium falciparum clone CDC/Indochina III (W-2); assay: In vitro antimalarial [3H]-hypoxanthine incorporation serial dilution assay, W2; conditions: P. falciparum W2, 72 hours exposure; for IC50: Plasmodium falciparum
Description: as §1, §2, §3, §4, §5

[4] = compared with azithromycin, read-out: IC50 D6 (class symbol)

IC50 [1] [µg/mL]	IC50 ([2]; read-out: IC50 D6) [µg/mL]	IC50 [3] [µg/mL]	IC50 [2, 4] [µg/mL]	Compound	IC50 TM91C235 [1] [µg/mL]	IC50 W2 [3] [µg/mL]
0.0237 (≈ 0.0244 µM)	0.0184 (≈ 0.0189 µM)	0.0201 (≈ 0.0207 µM)	–	CC[C@H]1OC(=O)[C@H](C)[C@@H](O[C@H]2C[C@@](C)(OC)[C@@H](O)[C@H](C)O2)[C@H](C)[C@@H](O[C@@H]2O[C@H](C)C[C@H](N(C)C)[C@H]2O)[C@](C)(O)C[C@@H](C)CN(CCCNC(=S)Nc2ccc([N+](=O)[O-])cc2)[C@H](C)[C@@H](O)[C@]1(C)O [Example 105]	–	–
0.131 (≈ 0.139 µM)	0.302 (≈ 0.32 µM)	0.0688 (≈ 0.0728 µM)	–	CC[C@H]1OC(=O)[C@H](C)[C@@H](O[C@H]2C[C@@](C)(OC)[C@@H](O)[C@H](C)O2)[C@H](C)[C@@H](O[C@@H]2O[C@H](C)C[C@H](N(C)C)[C@H]2O)[C@](C)(O)C[C@@H](C)CN(CCCNC(=S)Nc2ccc(F)cc2)[C@H](C)[C@@H](O)[C@]1(C)O [Example 99]	–	–
0.275 (≈ 0.288 µM)	0.284 (≈ 0.298 µM)	0.102 (≈ 0.107 µM)	–	CC[C@H]1OC(=O)[C@H](C)[C@@H](O[C@H]2C[C@@](C)(OC)[C@@H](O)[C@H](C)O2)[C@H](C)[C@@H](O[C@@H]2O[C@H](C)C[C@H](N(C)C)[C@H]2O)[C@](C)(O)C[C@@H](C)CN(CCCNC(=S)NC(=O)c2ccccc2)[C@H](C)[C@@H](O)[C@]1(C)O [Example 100]	–	–
0.866 (≈ 0.972 µM)	–	0.605 (≈ 0.679 µM)	> 0.797	CC[C@H]1OC(=O)[C@H](C)[C@@H](O[C@H]2C[C@@](C)(OC)[C@@H](O)[C@H](C)O2)[C@H](C)[C@@H](O[C@@H]2O[C@H](C)C[C@H](N(C)C)[C@H]2O)[C@](C)(O)C[C@@H](C)CN(CCCNC(=S)NC2CC2)[C@H](C)[C@@H](O)[C@]1(C)O [Example 113]	–	–
0.0731 (≈ 0.068 µM)	0.188 (≈ 0.175 µM)	0.057 (≈ 0.0531 µM)	–	CC[C@H]1OC(=O)[C@H](C)[C@@H](O[C@H]2C[C@@](C)(OC)[C@@H](O)[C@H](C)O2)[C@H](C)[C@@H](O[C@@H]2O[C@H](C)C[C@H](N(C)C)[C@H]2O)[C@](C)(O)C[C@@H](C)CN(CCCNC(=S)Nc2ccc(S(=O)(=O)N3CCCCC3)cc2)[C@H](C)[C@@H](O)[C@]1(C)O [Example 141]	–	–
0.0723 (≈ 0.0737 µM)	0.441 (≈ 0.449 µM)	0.162 (≈ 0.165 µM)	–	CC[C@H]1OC(=O)[C@H](C)[C@@H](O[C@H]2C[C@@](C)(OC)[C@@H](O)[C@H](C)O2)[C@H](C)[C@@H](O[C@@H]2O[C@H](C)C[C@H](N(C)C)[C@H]2O)[C@](C)(O)C[C@@H](C)CN(CCCNC(=S)Nc2ccc(F)c(F)c2F)[C@H](C)[C@@H](O)[C@]1(C)O [Example 133]	–	–

Second part, the molecule before the results:

Compound	IC50 [1] [µg/mL]	IC50 ([2]; read-out: IC50 D6) [µg/mL]	IC50 [3] [µg/mL]	IC50 [2, 4] [µg/mL]	IC50 TM91C235 [1] [µg/mL]	IC50 W2 [3] [µg/mL]
CC[C@H]1OC(=O)[C@H](C)[C@@H](O[C@H]2C[C@@](C)(OC)[C@@H](O)[C@H](C)O2)[C@H](C)[C@@H](O[C@@H]2O[C@H](C)C[C@H](N(C)C)[C@H]2O)[C@](C)(O)C[C@@H](C)CN(CCNC(=O)NC(C)C)[C@H](C)[C@@H](O)[C@]1(C)O [Example 1, 9-Deoxo-9-dihydro-9a-(N′-isopropylcarbamoyl-β-aminoethyl)-9a-aza-9a-homoerythromycin A]	–	–	–	–	0.6191 (≈ 0.717 µM)	1.777 (≈ 2.06 µM)
CC[C@H]1OC(=O)[C@H](C)[C@@H](O[C@H]2C[C@@](C)(OC)[C@@H](O)[C@H](C)O2)[C@H](C)[C@@H](O[C@@H]2O[C@H](C)C[C@H](N(C)C)[C@H]2O)[C@](C)(O)C[C@@H](C)CN(CCCNC(=S)NC(c2ccccc2)(c2ccccc2)c2ccccc2)[C@H](C)[C@@H](O)[C@]1(C)O.O=CO [Example 125]	0.0364	0.142	0.0422	–	–	–
CC[C@H]1OC(=O)[C@H](C)[C@@H](O[C@H]2C[C@@](C)(OC)[C@@H](O)[C@H](C)O2)[C@H](C)[C@@H](O[C@@H]2O[C@H](C)C[C@H](N(C)C)[C@H]2O)[C@](C)(O)C[C@@H](C)CN(CCCNC(=O)NCc2ccco2)[C@H](C)[C@@H](O)[C@]1(C)O [Example 57]	0.454 (≈ 0.496 µM)	–	0.263 (≈ 0.287 µM)	> 0.797	–	–
CC[C@H]1OC(=O)[C@H](C)[C@@H](O[C@H]2C[C@@](C)(OC)[C@@H](O)[C@H](C)O2)[C@H](C)[C@@H](O[C@@H]2O[C@H](C)C[C@H](N(C)C)[C@H]2O)[C@](C)(O)C[C@@H](C)CN(CCCNC(=S)NC23CC4CC(CC(C4)C2)C3)[C@H](C)[C@@H](O)[C@]1(C)O [Example 130]	0.15 (≈ 0.152 µM)	0.545 (≈ 0.553 µM)	0.207 (≈ 0.21 µM)	–	–	–
CC[C@H]1OC(=O)[C@H](C)[C@@H](O[C@H]2C[C@@](C)(OC)[C@@H](O)[C@H](C)O2)[C@H](C)[C@@H](O[C@@H]2O[C@H](C)C[C@H](N(C)C)[C@H]2O)[C@](C)(O)C[C@@H](C)CN(CCCNC(=S)Nc2cc(-c3ccccc3)ccc2OC)[C@H](C)[C@@H](O)[C@]1(C)O [Example 127]	0.0571 (≈ 0.0553 µM)	0.06 (≈ 0.0581 µM)	0.117 (≈ 0.114 µM)	–	–	–
CCCCNC(=S)NCCCN1C[C@H](C)C[C@@](C)(O)[C@H](O[C@@H]2O[C@H](C)C[C@H](N(C)C)[C@H]2O)[C@@H](C)[C@H](O[C@H]2C[C@@](C)(OC)[C@@H](O)[C@H](C)O2)[C@@H](C)C(=O)O[C@H](CC)[C@@](C)(O)[C@H](O)[C@H]1C.O=CO [Example 96]	0.364	0.625	0.179	–	–	–
CC[C@H]1OC(=O)[C@H](C)[C@@H](O[C@H]2C[C@@](C)(OC)[C@@H](O)[C@H](C)O2)[C@H](C)[C@@H](O[C@@H]2O[C@H](C)C[C@H](N(C)C)[C@H]2O)[C@](C)(O)C[C@@H](C)CN(CCCN(CCC(N)=O)C(=S)NCCc2ccccc2)[C@H](C)[C@@H](O)[C@]1(C)O [Example 166, 9-Deoxo-9-dihydro-9a-{N′-(β-amidoethyl)-N′-[β-(phenylethyl)thiocarbamoyl]-γ-aminopropyl}-9a-aza-9a-homoerythromycin A]	0.161 (≈ 0.157 µM)	0.458 (≈ 0.446 µM)	0.23 (≈ 0.224 µM)	–	–	–
CC[C@H]1OC(=O)[C@H](C)[C@@H](O[C@H]2C[C@@](C)(OC)[C@@H](O)[C@H](C)O2)[C@H](C)[C@@H](O[C@@H]2O[C@H](C)C[C@H](N(C)C)[C@H]2O)[C@](C)(O)C[C@@H](C)CN(CCCNC(=O)Nc2c(C)noc2-c2ccccc2)[C@H](C)[C@@H](O)[C@]1(C)O.O=CO [Example 90]	0.511	0.972	0.762	–	–	–
CC[C@H]1OC(=O)[C@H](C)[C@@H](O[C@H]2C[C@@](C)(OC)[C@@H](O)[C@H](C)O2)[C@H](C)[C@@H](O[C@@H]2O[C@H](C)C[C@H](N(C)C)[C@H]2O)[C@](C)(O)C[C@@H](C)CN(CCCNC(=S)NC(c2ccccc2)c2ccccc2)[C@H](C)[C@@H](O)[C@]1(C)O [Example 129]	0.056 (≈ 0.055 µM)	0.222 (≈ 0.218 µM)	–	–	–	–
CCOC(=O)CCN(CCCN1C[C@H](C)C[C@@](C)(O)[C@H](O[C@@H]2O[C@H](C)C[C@H](N(C)C)[C@H]2O)[C@@H](C)[C@H](O[C@H]2C[C@@](C)(OC)[C@@H](O)[C@H](C)O2)[C@@H](C)C(=O)O[C@H](CC)[C@@](C)(O)[C@H](O)[C@H]1C)C(=O)NC(C)c1cccc2ccccc12 (stereo partly drawn) [Example 163]	0.0679 (≈ 0.0623 µM)	0.135 (≈ 0.124 µM)	–	–	–	–
